Measured values reported in PubChem BioAssay (NCI).
Values joined by “and” are separate entries in the source; they are usually repeats but may differ in a detail not shown here. Identical values can stand only once.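 Exposure lasted 48 hours, with cells grown in 96-well plates and compounds tested at five concentrations. At the GI50, growth is halved. The concentration for full growth arrest is given as TGI.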

Assays:
Experiment in all cases: growth of human tumour cells (NCI), 48 h
EKVX NSCLC = test system: EKVX NSCLC
NCI-H23 lung = test system: NCI-H23 lung
BT-549 breast = test system: BT-549 breast
A549 NSCLC = test system: A549 NSCLC
HS 578T breast = test system: HS 578T breast
T-47D breast = test system: T-47D breast
SK-OV-3 ovarian = test system: SK-OV-3 ovarian
LOX IMVI melanoma = test system: LOX IMVI melanoma
HOP-92 NSCLC = test system: HOP-92 NSCLC
IGROV1 ovarian = test system: IGROV1 ovarian

| SMILES | TGI (EKVX NSCLC) | TGI (NCI-H23 lung) | TGI (BT-549 breast) | TGI (A549 NSCLC) | TGI (HS 578T breast) | TGI (T-47D breast) | TGI (SK-OV-3 ovarian) | TGI (LOX IMVI melanoma) | TGI (HOP-92 NSCLC) | TGI (IGROV1 ovarian) | GI50 (EKVX NSCLC) | GI50 (NCI-H23 lung) | GI50 (BT-549 breast) | GI50 (HOP-92 NSCLC) | GI50 (A549 NSCLC) | GI50 (HS 578T breast) | GI50 (T-47D breast) | GI50 (SK-OV-3 ovarian) | GI50 (IGROV1 ovarian) | GI50 (LOX IMVI melanoma) |
| --- | --- | --- | --- | --- | --- | --- | --- | --- | --- | --- | --- | --- | --- | --- | --- | --- | --- | --- | --- | --- |
| CCOc1ccc(N/C(=C(/C(Cl)=C(/Cl)N(CC)CC)[N+](=O)[O-])n2nnc3ccccc32)cc1 | 69.6 µM | 35 µM | 49.4 µM | > 100 µM | > 100 µM | 28.9 µM | > 100 µM |  |  |  |  |  |  |  |  |  |  |  |  |  |
| C[C@H](NC(=O)C(Cc1ccccc1)(Cc1ccc(O)cn1)NC(=O)c1ccccc1)c1ccccc1 (some centres not stated) | 34.2 µM | 50.5 µM | 36.9 µM | 31.6 µM | 41.1 µM | 69.1 µM |  | 29.7 µM | 38.8 µM | 37 µM |  |  |  |  |  |  |  |  |  |  |
| CCOP(=O)(/C=C\n1cc(C)c(=O)[nH]c1=O)OCC | > 100 µM | > 100 µM | > 100 µM | > 100 µM |  | > 100 µM | > 100 µM | > 100 µM |  | > 100 µM |  |  |  |  |  |  |  |  |  |  |
| ClCCCc1ccccc1C1=NCCc2ccccc21 | > 100 µM | > 100 µM | > 100 µM | > 100 µM | > 100 µM | > 100 µM | > 100 µM |  | > 100 µM | > 100 µM |  |  |  |  |  |  |  |  |  |  |
| CCNCCCn1c2c(c3ccc(Cl)cc3c1=O)C(=O)c1cc(OC)cnc1-2 | 2.78 µM | 2.47 µM | 20.3 µM | 2.31 µM | 4.31 µM | 1.58 µM | 1.94 µM |  | 27.2 µM |  | 0.859 µM | 0.539 µM | 0.813 µM | 3.01 µM | 0.459 µM | 1.74 µM | 0.161 µM | 0.475 µM |  |  |
| C=C[C@@H](C)[C@H](NS(=O)(=O)c1ccc(C)cc1)C(=O)OCC | > 100 µM | > 100 µM | > 100 µM | > 100 µM | 56.4 µM |  | > 100 µM | 34.7 µM |  | 77.3 µM |  |  |  |  |  |  |  |  |  |  |
| COC(=O)C1CCC(=S)N1C(=O)c1ccccc1 (configuration not stated) | > 100 µM | > 100 µM | > 100 µM | > 100 µM | > 100 µM | > 100 µM | > 100 µM |  | > 100 µM | > 100 µM |  |  |  |  |  |  |  |  |  |  |
| O=C1NC(Nc2ccccc2)=NC(C(F)(F)F)(C(F)(F)F)N1 | > 100 µM | > 100 µM |  | > 100 µM | > 100 µM | > 100 µM | > 100 µM | > 100 µM | 53.4 µM | > 100 µM |  |  |  |  |  |  |  |  |  |  |
| [Cl][Sn]([c]1ccccc1)([c]1ccccc1)[c]1ccccc1 | 0.985 µM and 0.239 µM and 0.119 µM | 0.285 µM and 0.0456 µM | 0.968 µM | 0.41 µM and 0.176 µM and 0.0469 µM | 23 µM | 0.412 µM | 0.696 µM and 0.335 µM |  |  | 0.865 µM and 0.196 µM |  | 0.0815 µM and 0.0133 µM | 0.282 µM | 0.0939 µM and 0.122 µM and 0.0139 µM |  | 0.378 µM | 0.171 µM | 0.239 µM and 0.178 µM | 0.316 µM and 0.0531 µM |  |
| CCOC(=O)CCC(NC(=O)OCc1ccccc1)C(=O)NC(CCC(=O)OCC)C(=O)NC(CCC(=O)OCC)C(=O)NC(CCC(=O)OCC)C(=O)NC(CCC(=O)OCC)C(=O)NC(CCC(=O)OCC)C(=O)NC(CCC(=O)OCC)C(=O)OCC (configuration not stated) |  | > 100 µM | > 100 µM | > 100 µM |  | > 100 µM |  | > 100 µM |  |  |  |  |  |  |  |  |  |  |  |  |
| CC1(C)N/C(=C\C=O)C(C)(C)N1O | > 100 µM | > 100 µM |  | > 100 µM | > 100 µM |  | > 100 µM | > 100 µM | > 100 µM | > 100 µM |  |  |  |  |  |  |  |  |  |  |
| O=C1C(Cl)=C(OCCCl)C(=O)c2c(O)ccc(O)c21 | 34.2 µM | 19.8 µM | 26.9 µM | 37.9 µM |  | 4 µM | 32.1 µM | 12.4 µM | 3.12 µM | 19.7 µM |  |  |  |  |  |  |  |  |  |  |
| C=C(C(N)=O)c1ccc([N+](=O)[O-])o1 | 42 µM | 20.6 µM |  | 40.3 µM | 77.1 µM | 48 µM | 87.9 µM | 23.1 µM | 19.5 µM | 23.4 µM |  |  |  |  |  |  |  |  |  |  |
| NC(=O)NNc1nc(-c2ccccc2)cs1 | > 100 µM |  | > 100 µM | > 100 µM | > 100 µM | > 100 µM | > 100 µM | > 100 µM |  | > 100 µM |  |  |  |  |  |  |  |  |  |  |
| CC(=O)OCC1OC(SC2=N/C(=C\c3ccc(Br)s3)C(=O)N2CN2CCOCC2)C(OC(C)=O)C(OC(C)=O)C1OC(C)=O (configuration not stated) | 97.4 µM | 27.2 µM | 38.8 µM |  | > 100 µM | 91.8 µM |  | 26.8 µM |  | 46.9 µM |  |  |  |  |  |  |  |  |  |  |
| Cc1csc(NC23CC4CC(CC(C4)C2)C3)[n+]1C(P(=O)([O-])O)P(=O)(O)O (configuration not stated) | > 100 µM | > 100 µM | > 100 µM | > 100 µM | > 100 µM |  | > 100 µM | > 100 µM | > 100 µM | > 100 µM |  |  |  |  |  |  |  |  |  |  |
| CC1(C)CC(O)C(C)(C)[C@@H](O)C1 (some centres not stated) | > 100 µM | > 100 µM | > 100 µM | > 100 µM | > 100 µM | > 100 µM | > 100 µM | > 100 µM |  | > 100 µM |  |  |  |  |  |  |  |  |  |  |
| Nc1ccc(S(=O)(=O)c2ccc(NCN3C(=O)NC(=O)C(=O)C3=O)cc2)cc1 | > 100 µM | > 100 µM | > 100 µM | > 100 µM | > 100 µM | > 100 µM |  | > 100 µM | > 100 µM | > 100 µM |  |  |  |  |  |  |  |  |  |  |
| CC(=O)Oc1cc2c(cc1OC(C)=O)OCC(c1ccc(C)cc1)C2 (configuration not stated) | 42.1 µM | 32.1 µM |  | 64.6 µM |  |  | 112 µM | 37.7 µM | 29 µM | 42.9 µM |  |  |  |  |  |  |  |  |  |  |
| Cc1cc(C)nc(SC2=C(Nc3ccc(C)c(Cl)c3)C(=O)N(Cc3ccccc3)C2=O)n1 |  | > 160 µM | > 160 µM | > 160 µM | > 160 µM |  | > 160 µM | > 160 µM | > 160 µM |  |  | > 160 µM | > 160 µM | > 160 µM | > 160 µM | > 160 µM |  | > 160 µM |  | > 160 µM |
| Cc1ccc(S(=O)(=O)n2c3ccc(Br)cc3c3nc4ccccc4nc32)cc1 |  | > 100 µM |  | > 100 µM | > 100 µM | > 100 µM |  | > 100 µM | > 100 µM | 57.8 µM |  |  |  |  |  |  |  |  |  |  |
| CN(C)C(=O)OC1C(=O)N(C)c2ccc(Cl)cc2C2(c3ccccc3)N1C2(Cl)Cl (configuration not stated) | > 100 µM | > 100 µM |  |  |  |  | > 100 µM | > 100 µM | > 100 µM | > 100 µM |  |  |  |  |  |  |  |  |  |  |
